From patent publication US20250375436A1, “SERDEXMETHYLPHENIDATE FOR TREATMENT OF IDIOPATHIC HYPERSOMNIA” (ZEVRA THERAPEUTICS, INC., priority 2024, published 2025)

Assays:
Assay type in all cases: in vivo, human
adults with IH [1] = assay: Phase 2 IH study: Brain Fog Scale (BFS); settings: for Brain Fog, Mean, Titration Baseline: before treatment; for Brain Fog, Mean, Randomization Baseline (Week 5): end of open-label titration; for Brain Fog, Difference in LS Mean (SE): SDX vs placebo, ANCOVA
Source text: “Brain Fog Symptom Score” or “BFS” as it relates to the present technology, means the total score collected with a 19-item questionnaire asking the respondents to describe their mental state while experiencing “Brain Fog” during the last week. The currently recognized 19 mental states of BF include forgetful, difficulty thinking, difficulty focusing, cloudy, difficulty finding the right words/communicating, mental fatigue, slow, mind went blank, spacey, difficulty processing what others say, exhausted, easily distracted, difficulty processing words read, confused, annoyed, sleepy, lost, detached, thoughts moving too quickly. Each item is answered based on a 0 to 4-point Likert scale where 0 means “strongly disagree” and 4 means “strongly agree”.
(§1) A double-blind, placebo-controlled, randomized-withdrawal, dose-optimizing, multi-center study investigated the safety and efficacy of serdexmethylphenidate for the treatment of IH. Twenty-two (22) patients completed a 7-week study consisting of two parts. Part 1 of the trial comprised a five-week open-label titration phase during which patients were optimized to one of four total daily doses of serdexmethylphenidate (80, 160, 240, or 320 mg/day). About half the study participants were assigned to take the total daily dose of study drug once per day just before going to bed (QD dosing cohort). The other half was instructed to take half the daily dose of study drug in the morning after awakening and the second half of the daily dose just before going to bed (BID dosing cohort). The titration procedure during the 5-week open label period was conducted as follows: patient treatment was initiated with the lowest total daily dose (80 mg/day) regardless of dosing regimen. At subsequent clinical visits scheduled at intervals of about 1 week each, the dose of the patient was either decreased (except after the first week), maintained, or increased based on tolerability, clinical effect, and adverse events. Depending on the severities of any dose-limiting effects as determined by the clinician, the dose was decreased if possible or the patient was discontinued from the study. If the dose was tolerated by the patient and the clinician determined an opportunity to improve effectiveness, the dose of study drug was increased if possible. Otherwise, the dose was maintained in the subsequent week.
(§2) Part 2 of the trial comprised a two-week randomized (2:1), double-blind, withdrawal phase, during which two-thirds of the trial participants continued to receive their optimized dose while the remaining one-third received placebo. During the withdrawal phase, patients continued the same dosing regimen (QD or BID) they were assigned to at treatment initiation and adhered to during the titration phase.
(§3) Secondary efficacy endpoints included Excessive Daytime Sleepiness (EDS) assessed with the Epworth Sleepiness Scale (ESS). Additional secondary endpoints were based on the Idiopathic Hypersomnia Severity Scale (IHSS), daily rating of difficulty of waking up in the morning assessed with the Sleep Inertia Visual Analog Scale (SI-VAS), and rating of brain fog symptoms measured with an exploratory Brain Fog Scale (BFS). Scores on the ESS, IHSS, and BFS were based on a 1-week look-back period.
The BFS scale is based on a 19 item questionnaire where each question is scored on a 0-4 Likert scale where a score of 0 means “strongly disagree”, a score of 2 means “neutral”, and a score of 4 means “strongly agree”. Possible BFS total scores range from 0 to 76. The horizontal dashed line at a BFS score of 38 points represents the total BFS score of for “neutral” responses to all 19 questions.

[2] = Single oral dose of 240 mg serdexmethylphenidate in the morning or at night before bedtime, randomized crossover; plasma d-MPH PK by LC/MS-MS; settings: evening vs morning dosing
Experimental: Heathy adult subjects received single oral doses of 240 mg serdexmethylphenidate, either in the morning or at night, just before bedtime, in a randomized crossover fashion with a washout of 6 days between treatments. Subjects went to bed and nighttime conditions were maintained after administration of the evening dose. Multiple blood PK samples and safety parameters were collected after each administration. d-MPH was measured with a validated LC/MS-MS method. A total of 15 subjects (9 males/6 females) were randomized with 14 completing both treatments.

adults with IH [3] = assay: Phase 2 IH study: Sleep Inertia Visual Analog Scale (SI-VAS); settings: for SI-VAS, Mean, Titration Baseline: before treatment; for SI-VAS, Mean, Randomization Baseline (Week 5): end of open-label titration; for SI-VAS, Difference in LS Mean (SE): SDX vs placebo, ANCOVA; for Decrease in mean SI-VAS score: 5-week titration period
Source text: “Sleep Inertia Visual Analog Scale” or “SI-VAS,” as it relates to the present technology, is a psychometric response scale to assess how difficult it was for the patient to wake up in the morning. The SI-VAS is a unipolar scale anchored at 0 (“very easy”) and 100 (“very difficult”).
as §1, §2, §3
The SI-VAS is a unipolar scale anchored at 0 (“very easy”) and 100 (“very difficult”). The horizontal dashed line at an SI-VAS score of 50 points represents the midpoint between individuals finding it very easy to awaken and individuals finding it very difficult to awaken in the morning. SI-VAS Patients on the QD dosing schedule reported a decrease of about 33 points in mean SI-VAS score over the 5-week titration period while being treated with conjugate of d-methylphenidate, while patients on the BID dosing schedule reported a decrease in mean SI-VAS of about 24-30 points.

[4] = Comparator study with Ritalin: plasma d-MPH PK; settings: for CL/F - Geo Mean: plasma d-MPH
Experimental: Ritalin is a racemate of d-methylphenidate approved for treating narcolepsy, which is a similar disorder of hypersomnolence characterized by significant excessive daytime sleepiness. The PK profiles of patient administered 80 mg or 200 mg of serdexmethylphenidate are compared to the PK profiles of patients administered 40 mg of Ritalin twice, 5 hours apart, and a single dose of 80 mg of Ritalin.

[5] = single 80 mg and single 200 mg doses

COC(=O)[C@H](c1ccccc1)[C@H]1CCCCN1C(=O)OC[n+]1cccc(C(=O)N[C@@H](CO)C(=O)O)c1 [SDX, serdexmethylphenidate]
Brain Fog, Mean Change from Randomization Baseline to Week 7 (adults with IH [1]; BID Cohort, SDX (N = 17)): 1.5 | Brain Fog, Mean, End of Withdrawal Period (Week 7) (adults with IH [1]; BID Cohort, SDX (N = 17)): 30.1 | Brain Fog, Mean, Titration Baseline (adults with IH [1]; BID Cohort, SDX (N = 17)): 52.4 | Brain Fog, Mean, Randomization Baseline (Week 5) (adults with IH [1]; BID Cohort, SDX (N = 17)): 28.6 | Brain Fog, Difference in LS Mean (SE) (adults with IH [1]; BID Cohort, p-value 0.060): −13.7 (7.07) | Brain Fog, Mean Change from Randomization Baseline to Week 7 (adults with IH [1]; QD Cohort, SDX (N = 15)): 0.9 | Brain Fog, Mean, End of Withdrawal Period (Week 7) (adults with IH [1]; QD Cohort, SDX (N = 15)): 28.5 | Brain Fog, Mean, Titration Baseline (adults with IH [1]; QD Cohort, SDX (N = 15)): 52.3 | Brain Fog, Mean, Randomization Baseline (Week 5) (adults with IH [1]; QD Cohort, SDX (N = 15)): 27.5 | Brain Fog, Difference in LS Mean (SE) (adults with IH [1]; QD Cohort, p-value 0.995): 0.0 (7.50) | Decrease in mean BFS score (adults with IH [1]; all patients, 5-week titration period): 19-25 points | Change in mean BFS score (adults with IH [1]; patients continuing treatment during the 2-week withdrawal period): no more than 1.5 points | Total plasma exposure to d-methylphenidate (AUC0-24h and AUCinf) [2]: similar | SI-VAS, Mean Change from Randomization Baseline to Week 7 (adults with IH [3]; BID Cohort, SDX (N = 17)): 1.1 | SI-VAS, Mean, End of Withdrawal Period (Week 7) (adults with IH [3]; BID Cohort, SDX (N = 17)): 49.0 | SI-VAS, Mean, Titration Baseline (adults with IH [3]; BID Cohort, SDX (N = 17)): 68.5 | SI-VAS, Mean, Randomization Baseline (Week 5) (adults with IH [3]; BID Cohort, SDX (N = 17)): 45.0 | SI-VAS, Difference in LS Mean (SE) (adults with IH [3]; BID Cohort, p-value 0.104): −10.0 (5.98) | Decrease in mean SI-VAS score (adults with IH [3]; BID dosing schedule): 24-30 points | SI-VAS, Mean Change from Randomization Baseline to Week 7 (adults with IH [3]; QD Cohort, SDX (N = 15)): 5.9 | SI-VAS, Mean, End of Withdrawal Period (Week 7) (adults with IH [3]; QD Cohort, SDX (N = 15)): 40.4 | SI-VAS, Mean, Titration Baseline (adults with IH [3]; QD Cohort, SDX (N = 15)): 68.8 | SI-VAS, Mean, Randomization Baseline (Week 5) (adults with IH [3]; QD Cohort, SDX (N = 15)): 35.1 | SI-VAS, Difference in LS Mean (SE) (adults with IH [3]; QD Cohort, p-value 0.208): 8.2 (6.39) | Decrease in mean SI-VAS score (adults with IH [3]; QD dosing schedule): about 33 points | Increase in mean SI-VAS score (adults with IH [3]; both QD and BID cohorts continuing treatment, 2-week withdrawal period): less than 6 points | CL/F - Geo Mean ([4]; SDX 80 mg (N = 14)): (283) L/h | CL/F - Geo Mean ([4]; SDX 200 mg (N = 14)): (304) L/h | AUC0-24 and AUCinf compared to Ritalin [4, 5]: higher | Cmax concentrations compared to Ritalin [4, 5]: lower | Tmax compared to Ritalin [4, 5]: longer
